{"source": "patent US10085958B2", "about": "“Bromfenac bioavailability” (BAUSCH & LOMB PHARMA HOLDINGS CORP., priority 2011, dated 2018)", "key": {"[1]": {"format": "in vivo", "settings": "for Mortality/Morbidity: animals found dead or euthanized prior to scheduled euthanasia/number in group"}, "[2]": {"assay": "Twenty-four hour ocular pharmacokinetics of ^14C-labeled bromfenac following topical instillation", "format": "in vivo, New Zealand White rabbit", "procedure": "Twenty-four hour ocular pharmacokinetics of a formulation of ^14C-labeled bromfenac following topical instillation in New Zealand White rabbit eyes was evaluated. ^14C-labeled bromfenac was analyzed to verify the radioactive purity prior to use. Dosing solutions were prepared and analyzed after dosing to confirm the radiochemical purity of the dosing solution. The radioactive concentration of the dosing solutions was calculated by liquid scintillation counting (LSC). Treatment parameters are summarized below:\nOn Day 1, 50 μL of the dosing solution was topically instilled into both eyes of each animal. Animals were weighed at randomization and prior to dosing on Day 1. Animals were euthanized by an intravenous injection of a commercial euthanasia solution at 1 hour±5 minutes, 2 hours±15 minutes, 4 hours±15 minutes, 8 hours±15 minutes, 12 hours±15 minutes, or 24 hours±15 minutes following dosing. After euthanasia, each eye was rinsed with normal saline. Aqueous humor was collected from both eyes and the weight was recorded. The globes were enucleated and frozen in liquid nitrogen. The globes were stored at ≤−70° C. prior to dissection. The iris/ciliary body, lens, vitreous, retina, choroid, sclera, conjunctiva, and cornea were collected from each eye, weighed, and stored at ≤−15° C. prior to analysis. Aqueous humor samples were stored at ≤−15° C. until analyzed.\nAll radioactivity measurements were performed using a Beckman Liquid Scintillation Spectrometer. The iris/ciliary body, lens, retina, choroid, sclera, conjunctiva, and cornea from each eye were weighed into combustion cones and combusted. Duplicate aliquots of each aqueous humor sample and each vitreous humor sample were transferred to LSC vials using Insta-Gel as the scintillation fluid and the amount of radioactivity was determined.\nThe dosing solution was prepared by weighing 2.41 mg of ^14C-labeled bromfenac sodium and dissolving into 3 mL diluent to achieve a non-radioactive concentration of 0.7 mg/mL (0.07% w/v) bromfenac free acid, a radioactive concentration of 129.7 μCi/mL, and a pH of 7.8.\nOn Day 1, 50 μL of the dosing solution was topically instilled into both eyes of each animal. The dosing solution was instilled into the conjunctival sac using a calibrated pipette, and the eyelid was held closed for 5-10 seconds following the dose. Any dosing solution found at the margin of the eyelid after dosing was recovered with a Lasik spear. The time of each dose administration was recorded.\nAnimals were euthanized by an intravenous injection of a commercial euthanasia solution at 1 hour±5 minutes, 2 hours±15 minutes, 4 hours±15 minutes, 8 hours±15 minutes, 12 hours±15 minutes, or 24 hours±15 minutes following dosing.\nAfter euthanasia, each eye was rinsed with normal saline. Aqueous humor was collected from both eyes and the weight was recorded. The globes were enucleated and frozen in liquid nitrogen. The globes were stored at ≤−70° C. prior to dissection. The iris/ciliary body, lens, vitreous, retina, choroid, sclera, conjunctiva, and cornea were collected from each eye, weighed, and stored at ≤−15° C. prior to analysis. The start time of necropsy was recorded. Aqueous humor samples were stored at ≤−15° C. until analyzed.\nThe iris/ciliary body, lens, retina, choroid, sclera, conjunctiva, and cornea from each eye were weighed into combustion cones and combusted with the exception of the left eye from Animal No. 731. The retina, choroid, and cornea from this eye were lost during processing and could not be recovered. No radioactivity data is available for these tissues.\nCombusted samples were trapped in […] (RJ Harvey) present in LSC vials and the amount of radioactivity determined by LSC. Duplicate aliquots of each aqueous humor sample (approximately 25 μL) were transferred to LSC vials and the amount of radioactivity was determined by LSC using Insta-Gel as the scintillation fluid. […]"}, "[3]": {"settings": "Group A, 1 hr. post-dose, 0.07% pH 7.8, 50 μL per eye topical"}, "[4]": {"settings": "Group B, 2 hr. post-dose, 0.07% pH 7.8, 50 μL per eye topical"}, "[5]": {"settings": "Group C, 4 hr. post-dose, 0.07% pH 7.8, 50 μL per eye topical"}, "[6]": {"settings": "Group D, 8 hr. post-dose, 0.07% pH 7.8, 50 μL per eye topical"}}, "note": "Where “and” joins values, the source holds several entries; their conditions need not be identical. Equal values may be shown once. Read-outs that look alike come from different tables or passages of the source.", "data": [{"smiles": "Nc1c(CC(=O)O)cccc1C(=O)c1ccc(Br)cc1", "note": "[^14C-labeled Bromfenac]", "values": [{"measurement": "Mortality/Morbidity", "setting": "[1]; Group A, necropsy 1 hour post-dose", "value": "0/3"}, {"measurement": "Mortality/Morbidity", "setting": "[1]; Group B, necropsy 2 hours post-dose", "value": "0/3"}, {"measurement": "Mortality/Morbidity", "setting": "[1]; Group C, necropsy 4 hours post-dose", "value": "0/3"}, {"measurement": "Mortality/Morbidity", "setting": "[1]; Group D, necropsy 8 hours post-dose", "value": "0/3"}, {"measurement": "Mortality/Morbidity", "setting": "[1]; Group E, necropsy 12 hours post-dose", "value": "0/3"}, {"measurement": "Mortality/Morbidity", "setting": "[1]; Group F, necropsy 24 hours post-dose", "value": "0/3"}, {"measurement": "Mortality, whole study", "setting": "[1]; all groups, up to 24 hours after 50 μL 0.07% per eye", "value": "no mortality"}, {"measurement": "Radioactivity detected by LSC in the lens and the vitreous humor", "setting": "[2]; 24 hour study period", "value": "very low and close to background values"}, {"measurement": "Radioactive residues, Total of eye tissues, Mean", "setting": "[2]; [3]", "value": 1.187, "unit": "Percent Dose"}, {"measurement": "Radioactive residues, Total of eye tissues, single eyes OD/OS", "setting": "[2]; [3]", "value": "0.954 Percent Dose and 1.172 Percent Dose and 1.011 Percent Dose and 1.423 Percent Dose and 1.185 Percent Dose and 1.374 Percent Dose"}, {"measurement": "Radioactive residues, Total of eye tissues, Mean", "setting": "[2]; [4]", "value": 0.867, "unit": "Percent Dose"}, {"measurement": "Radioactive residues, Total of eye tissues, single eyes OD/OS", "setting": "[2]; [4]", "value": "0.923 Percent Dose and 0.762 Percent Dose and 0.782 Percent Dose and 1.246 Percent Dose and 0.725 Percent Dose and 0.761 Percent Dose"}, {"measurement": "Radioactive residues in Conjunctiva, Mean", "setting": "[2]; [5]", "value": 0.142, "unit": "Percent Dose"}, {"measurement": "Radioactive residues, Total of eye tissues, Mean", "setting": "[2]; [5]", "value": 0.550, "unit": "Percent Dose"}, {"measurement": "Radioactive residues in Cornea, Mean", "setting": "[2]; [6]", "value": "0.471 ppm (μg-eq/g)"}, {"measurement": "Radioactive residues, Total of eye tissues, Mean", "setting": "[2]; [6]", "value": 0.228, "unit": "Percent Dose"}, {"measurement": "Radioactive residues, Total of eye tissues, Mean", "setting": "[2]; Group E, 12 hr. post-dose, 0.07% pH 7.8, 50 μL per eye topical", "value": 0.107, "unit": "Percent Dose"}, {"measurement": "Radioactive residues, Total of eye tissues, Mean", "setting": "[2]; Group F, 24 hr. post-dose, 0.07% pH 7.8, 50 μL per eye topical", "value": 0.034, "unit": "Percent Dose"}, {"measurement": "Tissues with the highest concentrations of drug-derived radioactivity", "setting": "[2]; mean ppm (μg/g), 24 hour study period", "value": "cornea, conjunctiva, and sclera"}]}]}
